Assay: Inhibition of IL-6 release in IL-17A/TNFalpha-stimulated HDF cells preincubated with IL-17A and TNFalpha for 5 hrs followed by […] to assay plate and measured after 18 to 20 hrs by europium cryptate and Alexa 665 reagent based FRET assay
Assay type: functional, cell-based
Conditions: Homo sapiens, NHDF

SMILES | IC50
Cc1nonc1C(=O)N[C@H](c1cn2ncc([C@H]3C[C@](C)(O)CCN3C(=O)[C@@H]3CCC(F)(F)CO3)nc2n1)C1CCC(F)(F)CC1 | 5.01 nM
Cc1nonc1C(=O)N[C@H](c1cn2ncc([C@@H]3C[C@@](O)(C(F)(F)F)CCN3C(=O)[C@@H]3CCC(F)(F)CO3)nc2n1)C1CCC(F)(F)CC1 | 2.51 nM
Cc1nonc1C(=O)N[C@H](c1cn2ncc([C@@H]3COCCN3C(=O)[C@@H]3CCC(F)(F)CO3)nc2n1)C1CCC(F)(F)CC1 | 6.31 nM
Cc1nonc1C(=O)N[C@H](c1cn2ncc([C@@H]3COCCN3C(=O)C3CCC(F)(F)CO3)nc2n1)C(C1CC1)C1CC1 (stereo partly specified) | 3.98 nM
Cc1nonc1C(=O)N[C@H](c1cn2ncc([C@H]3C[C@H](O)CCN3C(=O)[C@@H]3CCC(F)(F)CO3)nc2n1)C1CCC(F)(F)CC1 | 3.98 nM
Cc1nonc1C(=O)N[C@H](c1cn2ncc([C@@H]3C[C@](C)(O)CCN3C(=O)[C@@H]3CCC(F)(F)CO3)nc2n1)C1CCC(F)(F)CC1 | 3.98 nM
